Measurements reported in the supplement of paper PMC10307832.

Experiments:
Assay in all cases: relative viability (nuclei count vs DMSO), 5 days (fraction); higher = more cells survive
Bortezomib + Palbociclib = compound: CC(C)C[C@H](NC(=O)[C@H](Cc1ccccc1)NC(=O)c1cnccn1)B(O)O [Bortezomib] + CC(=O)c1c(C)c2cnc(Nc3ccc(N4CCNCC4)cn3)nc2n(C2CCCC2)c1=O [Palbociclib] (partner 0.5 µM)
Procedure, shortened: (§1)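 Dosing by pin tool came one day after lung cancer cell lines were seeded in 1536-well plates, using either one drug or a fixed anchor-drug dose plus five library-drug doses (not always all listed) in √10 steps. After 5 days, nuclei were counted on 4× images. Relative viability is treated-well nuclei count divided by vehicle-well nuclei count, and values are medians of duplicate plates.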

Bortezomib + Vorinostat = compound: CC(C)C[C@H](NC(=O)[C@H](Cc1ccccc1)NC(=O)c1cnccn1)B(O)O [Bortezomib] + O=C(CCCCCCC(=O)Nc1ccccc1)NO [Vorinostat] (partner 1 µM)
Procedure, shortened: as §1

[1] = compound: CC1=CC(=NN1)NC2=CC(=NC(=N2)/C=C/C3=CC=CC=C3)N4CCN(CC4)C + COc1cccc2cc(-c3nc([C@H]4CC[C@H](C(=O)O)CC4)n4ncnc(N)c34)[nH]c12 [OSI-027] (partner 0.5 µM)
Procedure, shortened: as §1

Obatoclax + Linsitinib = compound: COC1=CC(c2cc3ccccc3[nH]2)=N/C1=C\c1[nH]c(C)cc1C [Obatoclax] + C[C@]1(O)C[C@@H](c2nc(-c3ccc4ccc(-c5ccccc5)nc4c3)c3c(N)nccn32)C1 [Linsitinib] (partner 1 µM)
Procedure, shortened: as §1

| Cell Line | relative viability (Bortezomib + Palbociclib; first compound 0.0002 µM) | relative viability (Bortezomib + Palbociclib; first compound 0.000632 µM) | relative viability (Bortezomib + Palbociclib; first compound 0.002 µM) | relative viability (Bortezomib + Palbociclib; first compound 0.006325 µM) | relative viability (Bortezomib + Palbociclib; first compound 0.02 µM) | relative viability (Bortezomib + Vorinostat; first compound 0.0002 µM) | relative viability (Bortezomib + Vorinostat; first compound 0.000632 µM) | relative viability (Bortezomib + Vorinostat; first compound 0.002 µM) | relative viability (Bortezomib + Vorinostat; first compound 0.006325 µM) | relative viability (Bortezomib + Vorinostat; first compound 0.02 µM) | relative viability ([1]; first compound 0.08 µM) | relative viability ([1]; first compound 0.253 µM) | relative viability ([1]; first compound 0.8 µM) | relative viability ([1]; first compound 2.53 µM) | relative viability ([1]; first compound 8 µM) | relative viability (Obatoclax + Linsitinib; first compound 0.01 µM) | relative viability (Obatoclax + Linsitinib; first compound 0.03162 µM) | relative viability (Obatoclax + Linsitinib; first compound 0.1 µM) | relative viability (Obatoclax + Linsitinib; first compound 0.3162 µM) | relative viability (Obatoclax + Linsitinib; first compound 1 µM) |
| --- | --- | --- | --- | --- | --- | --- | --- | --- | --- | --- | --- | --- | --- | --- | --- | --- | --- | --- | --- | --- |
| HCC-15 | 0.622 | 0.769 | 0.689 | 0.104 | 0.0904 | 0.864 | 0.892 | 0.729 | 0.107 | 0.094 | 0.665 | 0.642 | 0.549 | 0.158 | 0.0878 | 0.879 | 0.708 | 0.845 | 0.736 | 0.606 |
| HCC-44 | 1.02 | 1.02 | 0.943 | 0.759 | 0.278 | 1.07 | 1.07 | 1.1 | 0.557 | 0.328 | 0.615 | 0.49 | 0.633 | 0.292 | 0.144 | 0.688 | 0.628 | 0.688 | 0.555 | 0.63 |
| HCC-78 | 0.517 | 0.531 | 0.444 | 0.451 | 0.405 | 0.453 | 0.447 | 0.263 | 0.281 | 0.276 | 0.325 | 0.357 | 0.387 | 0.343 | 0.198 | 0.448 | 0.52 |  | 0.283 | 0.304 |
| HCC-366 | 0.352 | 0.319 | 0.372 | 0.0727 | 0.0268 | 0.352 | 0.377 | 0.33 | 0.113 | 0.026 | 0.833 | 0.618 | 0.875 | 0.0773 | 0.0341 | 0.597 | 0.675 | 0.64 | 0.454 | 0.427 |
| HCC-827 | 0.496 | 0.626 | 0.467 | 0.197 | 0.137 | 0.802 | 0.883 | 0.799 | 0.814 | 0.182 | 0.778 | 0.865 | 0.716 | 0.742 | 0.588 | 0.904 | 1.01 | 0.895 | 0.866 | 0.914 |
| IA-LM |  |  |  |  |  | 0.955 | 0.788 | 0.806 | 0.674 | 0.008 |  |  |  |  |  | 0.457 | 0.505 | 0.5 | 0.465 | 0.0667 |
| NCI-H522 | 0.932 | 0.982 | 1.1 | 0.35 | 0.343 | 0.824 | 0.818 | 0.976 | 0.446 | 0.334 | 0.709 | 0.629 | 0.609 | 0.56 | 0.421 |  |  |  |  |  |
| NCI-H596 |  |  |  |  |  | 0.506 | 0.614 | 0.365 | 0.219 | 0.173 | 0.633 | 0.72 | 0.671 | 0.34 | 0.247 | 1.07 | 0.945 | 0.809 | 0.66 | 0.731 |
| NCI-H1299 |  |  |  |  |  |  |  |  |  |  |  |  |  |  |  | 0.975 | 0.837 | 0.925 | 0.948 | 0.72 |
| NCI-H1563 |  |  |  |  |  |  |  |  |  |  | 0.776 | 0.813 | 0.722 | 0.65 | 0.431 | 1.14 | 1.15 | 1.18 | 1.26 | 0.943 |
| NCI-H1623 |  |  |  |  |  |  |  |  |  |  | 0.412 | 0.41 | 0.411 | 0.377 | 0.282 |  |  |  |  |  |
| NCI-H1648 | 0.208 | 0.296 | 0.258 | 0.261 | 0.275 | 0.295 | 0.395 | 0.268 | 0.264 | 0.241 | 0.257 | 0.272 | 0.26 | 0.263 | 0.258 |  |  |  |  |  |
| NCI-H1650 | 0.342 | 0.312 | 0.136 | 0.117 | 0.146 | 0.575 | 0.58 | 0.151 | 0.139 | 0.155 | 0.645 | 0.782 | 0.624 | 0.154 | 0.0984 |  |  |  |  |  |
| NCI-H1703 |  |  |  |  |  |  |  |  |  |  |  |  |  |  |  | 0.613 | 0.539 | 0.407 | 0.917 | 0.589 |
| NCI-H1792 | 0.628 | 0.593 | 0.494 | 0.637 | 0.375 |  |  |  |  |  | 0.678 | 0.777 | 0.673 | 0.519 | 0.206 | 0.667 | 0.502 |  | 0.48 | 0.561 |
| NCI-H2170 | 0.376 | 0.394 | 0.402 | 0.221 | 0.125 | 0.746 | 0.722 | 0.972 | 0.173 | 0.121 | 0.759 | 0.728 | 0.683 | 0.377 | 0.189 |  |  |  |  |  |
| NCI-H2342 | 0.578 | 0.502 | 0.54 | 0.534 | 0.357 | 1.01 | 0.789 | 0.838 | 0.748 | 0.627 | 0.557 | 0.594 | 0.662 | 0.577 | 0.381 |  |  |  |  |  |
| SW 900 | 0.504 | 0.37 | 0.203 | 0.2 | 0.195 | 0.482 | 0.54 | 0.163 | 0.169 | 0.173 | 0.493 | 0.58 | 0.489 | 0.259 | 0.0615 |  |  |  |  |  |
